Test results reported in publication PMC6321475, “Synthesis and Evaluation of the 4-Substituted 2-Hydroxy-5-Iodochalcones and Their 7-Substituted 6-Iodoflavonol Derivatives for Inhibitory Effect on Cholinesterases and β-Secretase” (International Journal of Molecular Sciences, 2018).
Read-outs that look alike come from different tables or passages of the source.

How the values were obtained:
Format in all cases: biochemical
BACE-1 [1] = target: T1, BACE-1 (Homo sapiens, UniProt P56817); experiment: In vitro BACE-1 inhibitory FRET assay; conditions: 60 min at 25 °C, pH 4.5
T1 construct: purchased Pan Vera; host or cells: baculovirus-expressed

[2] = target: acetylcholinesterase (AChE) (Homo sapiens, UniProt P22303); experiment: biochemical
BChE = BChE (Homo sapiens, UniProt P06276); experiment: Kinetic study against BChE (Lineweaver-Burk and Dixon plots); conditions: for Ki: Dixon plot, substrate butyrylthiocholine iodide; for mode of inhibition of BChE: kinetic analysis
Method: (§1) The experiment was performed using different inhibitor (2h, 3b or 3p) concentrations (0, 2.5, 3.5 and 5 µM) and substrate (acetylthiocholine iodide (ACh) or butyrylthiocholine iodide (BCh) concentrations (0.1, 0.5, 2.5 and 5 µM). The reaction was carried out in triplicate and the absorbences were measured at 412 nm after every 1 s. A linear graph of the absorbences against time were plotted to obtain the velocity. Finally, the lineweaver burk plot (reciprocal of the velocity versus reciprocal of the subtrate concentrations) was plotted. as well as the Dixon plot (reciprocal of the velocity versus inhibitor concentration). The inhibition constant Ki, was determined by calculating the straight line equations and identifying the point at which the lines would intersect.

[3] = target: butyrylcholinesterase (BChE) (Homo sapiens, UniProt P06276); experiment: biochemical
BACE-1 [4] = target: T1, BACE-1; experiment: Kinetic study against BACE-1 (Lineweaver-Burk and Dixon plots); conditions: Dixon plot intercept
Method: The kinetics assays were conducted according to the manufacturer’s instructions similarly to the inhibitory assay except that change in fluorescence over time was monitored at 590 nm without the addition of the stop solution. Each substrate (0.15, 0.30, 0.45 µM) and compound (0, 4, 8 and 16 µM) concentration pair were prepared in triplicate and analyzed. The Lineweaver Burk and Dixon plots were plotted as described in Section 3.7.1.

AChE = AChE (Homo sapiens, UniProt P22303); experiment: Kinetic study against AChE (Lineweaver-Burk and Dixon plots)
Method: as §1

[5] = mean ± SD, three independent experiments

T1 sequence (P56817 46-501): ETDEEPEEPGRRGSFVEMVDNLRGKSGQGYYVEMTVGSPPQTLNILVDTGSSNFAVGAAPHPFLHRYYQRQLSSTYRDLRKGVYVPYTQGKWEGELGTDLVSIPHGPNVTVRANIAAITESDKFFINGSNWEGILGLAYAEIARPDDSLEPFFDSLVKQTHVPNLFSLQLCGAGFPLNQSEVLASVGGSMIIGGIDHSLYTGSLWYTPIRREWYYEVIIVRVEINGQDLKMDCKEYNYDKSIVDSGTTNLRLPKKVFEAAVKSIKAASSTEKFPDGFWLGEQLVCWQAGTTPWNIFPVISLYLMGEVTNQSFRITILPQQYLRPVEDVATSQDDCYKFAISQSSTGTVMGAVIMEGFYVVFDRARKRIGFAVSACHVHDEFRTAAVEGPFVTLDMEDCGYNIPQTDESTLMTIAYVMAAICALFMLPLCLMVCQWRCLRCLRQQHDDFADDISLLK
acetylcholinesterase (AChE), sequence (P22303 32-614): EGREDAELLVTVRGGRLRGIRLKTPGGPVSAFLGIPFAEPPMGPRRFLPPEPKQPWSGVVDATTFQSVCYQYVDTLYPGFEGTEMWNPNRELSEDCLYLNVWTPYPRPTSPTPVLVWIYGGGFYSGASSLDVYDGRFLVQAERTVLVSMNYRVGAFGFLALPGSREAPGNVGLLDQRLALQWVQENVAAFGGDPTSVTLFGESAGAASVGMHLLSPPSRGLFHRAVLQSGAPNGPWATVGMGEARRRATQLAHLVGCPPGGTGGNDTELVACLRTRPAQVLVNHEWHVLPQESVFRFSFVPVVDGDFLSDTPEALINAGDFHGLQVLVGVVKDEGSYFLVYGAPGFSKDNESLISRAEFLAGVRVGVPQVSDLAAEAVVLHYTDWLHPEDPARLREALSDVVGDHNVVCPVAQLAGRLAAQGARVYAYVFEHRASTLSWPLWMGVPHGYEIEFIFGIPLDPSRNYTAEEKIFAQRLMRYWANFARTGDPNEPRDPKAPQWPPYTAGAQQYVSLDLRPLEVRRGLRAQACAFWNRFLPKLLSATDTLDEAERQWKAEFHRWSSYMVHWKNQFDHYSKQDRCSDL
butyrylcholinesterase (BChE), sequence (P06276 29-602): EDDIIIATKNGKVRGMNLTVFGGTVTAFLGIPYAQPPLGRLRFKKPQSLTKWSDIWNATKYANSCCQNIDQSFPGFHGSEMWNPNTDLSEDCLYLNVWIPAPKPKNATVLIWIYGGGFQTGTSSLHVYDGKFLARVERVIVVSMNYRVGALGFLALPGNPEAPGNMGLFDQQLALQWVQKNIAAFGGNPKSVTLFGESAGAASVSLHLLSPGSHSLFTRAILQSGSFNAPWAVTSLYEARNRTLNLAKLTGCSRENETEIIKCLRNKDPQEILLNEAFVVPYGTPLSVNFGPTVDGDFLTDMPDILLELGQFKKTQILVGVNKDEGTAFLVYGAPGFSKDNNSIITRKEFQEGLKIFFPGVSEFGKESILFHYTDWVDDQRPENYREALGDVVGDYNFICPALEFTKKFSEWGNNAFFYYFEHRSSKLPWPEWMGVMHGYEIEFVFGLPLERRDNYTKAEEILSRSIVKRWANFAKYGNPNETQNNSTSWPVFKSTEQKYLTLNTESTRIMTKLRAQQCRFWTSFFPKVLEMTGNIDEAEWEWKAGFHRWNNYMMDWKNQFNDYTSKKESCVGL
BChE, sequence (P06276 29-602): as above
AChE, sequence (P22303 32-614): as the sequence (P22303 32-614) above

SMILES | IC50 (BACE-1 [1]) [µM] | SI BChE/AChE [2] | IC50 [2, 5] [µM] | Ki (BChE) [µM] | mode of inhibition of BChE (BChE) | SI AChE/BChE [3] | IC50 [3, 5] [µM] | IC50 [2] [µM] | IC50 [3] [µM] | Ki (BACE-1 [4]) [µM] | Ki (AChE; Dixon plot, substrate acetylthiocholine iodide) [µM] | mode of inhibition of AChE (AChE; kinetic analysis)
COc1ccc(-c2oc3cc(OC)c(I)cc3c(=O)c2O)cc1 [Compound 3p, 3-Hyd.roxy-6-iodo-7-methoxy-2-(4-methoxyphenyl)-4H-chromen-4-one] | 22.44 ± 0.07 | 0.45 | 7.19 ± 0.02 | 0.46 ± 0.16 | mixed kinetic type of inhibition | 2.18 | 3.29 ± 0.03 | – | – | – | – | –
O=c1c(O)c(-c2ccc(Cl)cc2)oc2cc(F)c(I)cc12 [Compound 3c, 2-(4-C.hlorophenyl)-7-fluoro-3-hydroxy-6-iodo-4H-chromen-4-one] | 19.69 ± 0.05 | 10.8 | 3.45 ± 0.07 | – | – | 0.09 | 37.51 ± 0.08 | – | – | – | – | –
COc1ccc(/C=C/C(=O)c2cc(I)c(OC)cc2O)cc1 [Compound 2p, (E)-1-(2-Hydroxy-5-iodo-4-methoxyphenyl)-3-(4-methoxyphenyl)prop-2-en-1-one] | 70.79 ± 0.2 | 0.45 | 10.96 ± 0.03 | – | – | 2.24 | 4.89 ± 0.02 | – | – | – | – | –
O=C(/C=C/c1ccc(Cl)cc1)c1cc(I)c(Cl)cc1O [Compound 2g, (E)-1-(4-Chloro-2-hydroxy-5-iodophenyl)-3-(4-chlorophenyl)propenone] | – | – | – | – | – | – | – | 11 ± 0.06 | > 100 | – | – | –
COc1cc(O)c(C(=O)/C=C/c2ccccc2)cc1I [Compound 2m, (E)-1-(2-Hydroxy-5-iodo-4-methoxyphenyl)-3-phenylprop-2-en-1-one] | – | 0.95 | 10.01 ± 0.09 | – | – | 1.05 | 9.52 ± 0.03 | – | – | – | – | –
O=c1c(O)c(-c2ccccc2)oc2cc(Cl)c(I)cc12 [Compound 3e, 7-Chl.oro-3-hydroxy-6-iodo-2-phenyl-4H-chromen-4-one] | – | 0.14 | – | – | – | 7.21 | – | 47.85 ± 0.04 | 6.64 ± 0.03 | – | – | –
COc1ccc(-c2oc3cc(Br)c(I)cc3c(=O)c2O)cc1 [Compound 3l, 7-Bro.mo-3-hydroxy-6-iodo-2-(4-methoxyphenyl)-4H-chromen-4-one] | 15.74 ± 0.12 | – | – | – | – | – | – | – | – | 1.21 ± 0.66 | – | –
O=C(/C=C/c1ccc(F)cc1)c1cc(I)c(Cl)cc1O [Compound 2f, (E)-1-(4-Chloro-2-hydroxy-5-iodophenyl)-3-(4-fluorophenyl)propenone] | – | 1.87 | 9.57 ± 0.2 | – | – | 0.54 | 17.86 ± 0.08 | – | – | – | – | –
O=C(/C=C/c1ccc(F)cc1)c1cc(I)c(F)cc1O [Compound 2b, (E)-1-(4-Fluoro-2-hydroxy-5-iodophenyl)-3-(4-fluorophenyl)propenone] | – | 1.19 | – | – | – | 0.84 | – | 16.6 ± 0.03 | 19.73 ± 0.05 | – | – | –
O=C(/C=C/c1ccc(Cl)cc1)c1cc(I)c(F)cc1O [Compound 2c, (E)-3-(4-chlorophenyl)-1-(4-fluoro-2-hydroxy-5-iodophenyl)prop-2-en-1-one] | – | 1.39 | 10.5 ± 0.08 | – | – | 0.72 | 14.58 ± 0.14 | – | – | – | – | –
O=C(/C=C/c1ccc(F)cc1)c1cc(I)c(Br)cc1O [Compound 2j, (E)-1-(4-Bromo-2-hydroxy-5-iodophenyl)-3-(4-fluorophenyl)propenone] | 4.7 | 0.52 | 10.98 ± 0.03 | – | – | 1.92 | 5.73 ± 0.05 | – | – | 3.04 ± 2.31 | – | –
COc1ccc(/C=C/C(=O)c2cc(I)c(Cl)cc2O)cc1 [Compound 2h, (E)-1-(4-Chloro-2-hydroxy-5-iodophenyl)-3-(4-methoxyphenyl)propenone] | 13.82 ± 0.03 | 0.36 | 11.72 ± 0.07 | 1.36 ± 0.17 | non-competitive inhibitor | 2.81 | 4.17 ± 0.15 | – | – | – | – | –
COc1cc2oc(-c3ccc(Cl)cc3)c(O)c(=O)c2cc1I [Compound 3o, 2-(4-C.hlorophenyl)-3-hydroxy-6-iodo-7-methoxy-4H-chromen-4-one] | – | 0.24 | – | – | – | 4.03 | – | 55.27 ± 0.04 | 13.7 ± 0.14 | – | – | –
COc1cc(O)c(C(=O)/C=C/c2ccc(F)cc2)cc1I [Compound 2n, (E)-3-(4-Fluorophenyl)-1-(2-hydroxy-5-iodo-4-methoxyphenyl)prop-2-en-1-one] | 25.07 ± 0.1 | 0.63 | 9.38 ± 0.07 | – | – | 1.59 | 5.91 ± 0.05 | – | – | – | – | –
O=c1c(O)c(-c2ccc(F)cc2)oc2cc(F)c(I)cc12 [Compound 3b, 7-Flu.oro-2-(4-fluorophenyl)-3-hydroxy-6-iodo-4H-chromen-4-one] | 32.18 ± 0.15 | 9.22 | 3.23 ± 0.02 | – | – | 0.11 | 29.78 ± 0.04 | – | – | – | 4.34 ± 1.1 | mixed type of inhibition
O=c1c(O)c(-c2ccc(Cl)cc2)oc2cc(Br)c(I)cc12 [Compound 3k, 7-Bro.mo-2-(4-chlorophenyl)-3-hydroxy-6-iodo-4H-chromen-4-one] | – | 0.18 | – | – | – | 5.57 | – | 29.24 ± 0.03 | 5.25 ± 0.01 | – | – | –
COc1ccc(-c2oc3cc(F)c(I)cc3c(=O)c2O)cc1 [Compound 3d, 7-Flu.oro-3-hydroxy-6-iodo-2-(4-methoxyphenyl)-4H-chromen-4-one] | – | 0.50 | – | – | – | 1.98 | – | 58.18 ± 0.03 | 29.41 ± 0.04 | – | – | –
O=c1c(O)c(-c2ccccc2)oc2cc(F)c(I)cc12 [Compound 3a, 7-Flu.oro-3-hydroxy-6-iodo-2-phenyl-4H-chromen-4-one] | – | 0.91 | – | – | – | 1.10 | – | 29.71 ± 0.01 | 27.01 ± 0.06 | – | – | –
